Test results reported in patent publication US11472769B2, “SSAO inhibitors and use thereof” (Eccogene (Shanghai) Co., Ltd., priority 2019, dated 2022).
pIC50: −log10 of the molar value.

Tests used:
[1] = Brain Kpuu assay (BBB assay and protein binding assay); format: in vivo; conditions: ICR mice, 1 mg/kg IV, plasma and brain collected at 5 minutes after dosing
Experimental: For example, Brain Kpuu assay composed of Blood-Brain-Barrier (BBB) assay and protein binding assay, can be utilized. The protein binding assay comprises equilibrium dialysis against brain lysate and plasma to calculate fu(brain) and fu(plasma), respectively. The BBB assay can be conducted in experimental animals at 1 mg/kg IV dosage. After dosing with the compounds of the present application, plasma and brain samples can be collected to analyze compound concentration (Cplasma and Cbrain). The Kpuu value of the tested compounds can be calculated by the equation: […]
Brain Kpuu assay is composed of Blood-Brain-Barrier (BBB) assay and protein binding assay, which are conducted in ICR mice. Protein binding assays were performed in 96-well plates, using equilibrium dialysis against brain lysate and plasma to calculate fu(brain) and fu(plasma), respectively. BBB assays were conducted in mice at 1 mg/kg IV dosage. Plasma and brain samples were collected at 5 minutes after dosing to analyze compounds concentration (Cplasma and Cbrain). The Kpuu value of the tested compounds was calculated by the equation: […]

recombinant hSSAO = recombinant hSSAO (Homo sapiens (Human), UniProt Q16853); assay: SSAO Activity Assay (MAO-Glo assay kit); format: biochemical; conditions: 40 μM substrate, 30 mins pre-incubation
Outline: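 Substrate was 4 μM in MAO-B buffer for hMAO-B and 40 μM in MAO-A buffer for hSSAO and hMAO-A. Each enzyme first saw compound (0.1% DMSO vehicle) for 30 min at room temperature.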

recombinant hMAO-A = recombinant hMAO-A (Homo sapiens (Human), UniProt P21397); assay: MAO-A activity assay (MAO-Glo assay kit); format: biochemical; conditions: 40 μM substrate, 30 mins pre-incubation
Experimental: (§1) The biological activities of the compounds of the present application can be assessed with methods and assays known in the art. For example, the potency of the compounds of the present application can be evaluated with an SSAO Activity Assay. Briefly, compounds of the present application can be applied to recombinant hSSAO, hMAO-A, and hMAO-B isoforms and the amine oxidase activity of the enzymes are measured after the addition and subsequent oxidation of the luminogenic substrate (e.g., with the MAO-Glo assay kit from Promega). The IC50 can be calculated, for example, by fitting the dose response curve using a 4-parameter non-linear regression routine.
(§2) Amine oxidase activity of recombinant hSSAO, hMAO-A, and hMAO-B isoforms are measured using the MAO-Glo assay kit (Promega, V1402). Ten nL test compounds (with DMSO as vehicle, 0.1% v/v for hSSAO, hMAO-A and hMAO-B) were added into assay plates by Echo, and pre-incubated with 5 μL of enzyme for 30 mins at room temperature before the addition of 5 μL of luminogenic substrate. The substrate concentration is 40 μM for human recombinant SSAO, 40 μM for human recombinant MAO-A, and 4 μM for human recombinant MAO-B. The hSSAO and hMAO-A assays were conducted in the MAO-A reaction buffer in the kit, and the MAO-B assay was conducted in the MAO-B reaction buffer. Oxidation of the substrate was conducted for 1 hr, before the addition of detecting reagent according the manufacture's protocol. The IC50 value of the tested compounds was calculated by fitting the dose response curve using a 4-parameter non-linear regression routine.

recombinant hMAO-B = recombinant hMAO-B (Homo sapiens (Human), UniProt P27338); assay: MAO-B activity assay (MAO-Glo assay kit); format: biochemical; conditions: 4 μM substrate, 30 mins pre-incubation
Experimental: as §1, §2

recombinant hSSAO, sequence (Q16853 whole entry): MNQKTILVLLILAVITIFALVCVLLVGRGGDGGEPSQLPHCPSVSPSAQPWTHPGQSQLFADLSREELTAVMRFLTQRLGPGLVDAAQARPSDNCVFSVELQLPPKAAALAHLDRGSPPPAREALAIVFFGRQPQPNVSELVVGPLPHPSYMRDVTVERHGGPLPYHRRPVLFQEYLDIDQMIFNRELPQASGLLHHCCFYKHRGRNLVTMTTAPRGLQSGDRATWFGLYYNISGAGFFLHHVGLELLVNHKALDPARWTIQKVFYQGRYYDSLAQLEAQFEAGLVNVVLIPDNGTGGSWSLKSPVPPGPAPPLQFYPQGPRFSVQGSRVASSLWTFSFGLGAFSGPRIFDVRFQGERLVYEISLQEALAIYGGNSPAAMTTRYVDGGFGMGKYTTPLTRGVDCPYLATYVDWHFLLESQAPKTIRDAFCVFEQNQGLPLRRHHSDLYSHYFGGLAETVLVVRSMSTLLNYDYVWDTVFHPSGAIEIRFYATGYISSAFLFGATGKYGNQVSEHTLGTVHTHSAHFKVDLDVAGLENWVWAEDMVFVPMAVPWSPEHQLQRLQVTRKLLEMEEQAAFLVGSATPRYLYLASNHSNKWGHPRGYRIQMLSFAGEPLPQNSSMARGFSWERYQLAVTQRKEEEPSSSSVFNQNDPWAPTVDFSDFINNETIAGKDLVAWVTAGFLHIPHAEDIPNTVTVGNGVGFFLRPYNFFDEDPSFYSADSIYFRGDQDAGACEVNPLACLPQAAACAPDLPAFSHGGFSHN
recombinant hMAO-B, sequence (P27338 whole entry): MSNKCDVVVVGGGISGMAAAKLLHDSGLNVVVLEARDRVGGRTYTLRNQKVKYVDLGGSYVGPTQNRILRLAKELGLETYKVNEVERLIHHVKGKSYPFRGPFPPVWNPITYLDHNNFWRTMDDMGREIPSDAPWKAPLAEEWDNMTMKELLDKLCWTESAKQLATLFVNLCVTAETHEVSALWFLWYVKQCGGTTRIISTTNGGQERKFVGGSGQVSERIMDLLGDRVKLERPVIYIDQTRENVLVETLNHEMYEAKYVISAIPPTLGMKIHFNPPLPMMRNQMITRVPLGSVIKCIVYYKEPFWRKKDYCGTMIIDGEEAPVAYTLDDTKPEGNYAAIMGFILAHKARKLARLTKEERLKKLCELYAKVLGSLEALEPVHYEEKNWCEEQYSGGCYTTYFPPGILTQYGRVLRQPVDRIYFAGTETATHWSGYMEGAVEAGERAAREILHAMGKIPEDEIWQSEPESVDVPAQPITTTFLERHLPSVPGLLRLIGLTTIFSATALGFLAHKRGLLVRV
recombinant hMAO-A, sequence (P21397 whole entry, canonical isoform): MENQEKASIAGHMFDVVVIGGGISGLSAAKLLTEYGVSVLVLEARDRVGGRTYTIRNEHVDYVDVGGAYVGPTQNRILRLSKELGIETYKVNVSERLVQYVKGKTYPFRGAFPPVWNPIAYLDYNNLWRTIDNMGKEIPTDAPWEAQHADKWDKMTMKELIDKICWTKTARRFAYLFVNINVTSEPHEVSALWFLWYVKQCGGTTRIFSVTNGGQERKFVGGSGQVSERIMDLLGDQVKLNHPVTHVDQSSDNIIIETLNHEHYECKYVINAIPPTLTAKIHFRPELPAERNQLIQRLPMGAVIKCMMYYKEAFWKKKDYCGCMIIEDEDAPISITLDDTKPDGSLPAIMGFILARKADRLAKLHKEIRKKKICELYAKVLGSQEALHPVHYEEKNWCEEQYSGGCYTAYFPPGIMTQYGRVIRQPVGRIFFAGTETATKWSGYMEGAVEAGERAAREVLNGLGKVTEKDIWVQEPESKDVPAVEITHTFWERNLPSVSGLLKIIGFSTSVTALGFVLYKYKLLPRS

Compound | Kpuu (mouse, t = 5 min) [1] | pIC50 (recombinant hSSAO) | pIC50 (recombinant hMAO-A) | pIC50 (recombinant hMAO-B) | Kp uu at 5 min ([1]; mouse, read-out: Kpuu (mouse, t = 5 min))
CC(CN1CCOCC1)CS(=O)(=O)c1ccc(OC/C(=C/F)CN)cc1F (stereo not shown) [Compound 114, (E)-3-fluoro-2-((3-fluoro-4-((2-methyl-3-morpholinopropyl)sulfonyl)phenoxy)methyl)prop-2-en-1-amine] |  | 7.00 to 7.70 | < 4.52 | < 4.52 | 
NC/C(=C\F)COc1ccc(S(=O)(=O)CN2Cc3ccccc3C2=O)cc1 [Compound 118, (E)-2-(((4-((2-(aminomethyl)-3-fluoroallyl)oxy)phenyl)sulfonyl)methyl)isoindolin-1-one] |  | 7.00 to 7.70 | > 5.00 | > 5.00 | 
NC/C(=C\F)COc1ccc(S(=O)(=O)CN2C(=O)CCc3ccccc32)cc1 [Compound 119, (E)-1-(((4-((2-(aminomethyl)-3-fluoroallyl)oxy)phenyl)sulfonyl)methyl)-3,4-dihydroquinolin-2(1H)-one] |  | 7.00 to 7.70 | 4.52 to 5.00 | < 4.52 | 
NC/C(=C\F)COc1ccc(S(=O)(=O)CN2C(=O)C3(CC3)c3ccccc32)cc1 [Compound 120, (E)-1′-(((4-((2-(aminomethyl)-3-fluoroallyl)oxy)phenyl)sulfonyl)methyl)spiro[cyclopropane-1,3′-indolin]-2′one] |  | 7.00 to 7.70 | < 4.52 | < 4.52 | 
CC1(C)CCC(=O)N1CS(=O)(=O)c1ccc(OC/C(=C/F)CN)cc1 [Compound 123, (E)-1-(((4-((2-(aminomethyl)-3-fluoroallyl)oxy)phenyl)sulfonyl)methyl)-5,5-dimethylpyrrolidin-2-one] |  | 7.00 to 7.70 | < 4.52 | < 4.52 | 
CC1(C)CCC(=O)N1CS(=O)(=O)c1ccc(OC/C(=C/F)CN)cc1Cl [Compound 124, (E)-1-(((4-((2-(aminomethyl)-3-fluoroallyl)oxy)-2-chlorophenyl)sulfonyl)methyl)-5,5-dimethylpyrrolidin-2-one] |  | 7.00 to 7.70 | < 4.52 | < 4.52 | 
CC1(C)CCN(CS(=O)(=O)c2ccc(OC/C(=C/F)CN)cc2)C1=O [Compound 125, (E)-1-(((4-((2-(aminomethyl)-3-fluoroallyl)oxy)phenyl)sulfonyl)methyl)-3,3-dimethylpyrrolidin-2-one] |  | 7.00 to 7.70 | < 4.52 | > 5.00 | 
CC1(C)CC(=O)N(CS(=O)(=O)c2ccc(OC/C(=C/F)CN)cc2)C1 [Compound 126, (E)-1-(((4-((2-(aminomethyl)-3-fluoroallyl)oxy)phenyl)sulfonyl)methyl)-4,4-dimethylpyrrolidin-2-one] |  | 6.30 to 7.00 | < 4.52 | 4.52 to 5.00 | 
NC/C(=C\F)COc1ccc(S(=O)(=O)CN2CCC3(CCCC3)C2=O)c(F)c1 [Compound 128, (E)-2-(((4-((2-(aminomethyl)-3-fluoroallyl)oxy)-2-fluorophenyl)sulfonyl)methyl)-2-azaspiro[4.4]nonan-1-one] |  | 6.30 to 7.00 | < 4.52 | < 4.52 | 
NC/C(=C\F)COc1ccc(S(=O)(=O)CN2CCCCC2=O)cc1 [Compound 129, (E)-1-(((4-((2-(aminomethyl)-3-fluoroallyl)oxy)phenyl)sulfonyl)methyl)piperidin-2-one] |  | 7.00 to 7.70 | < 4.52 | 4.52 to 5.00 | 
NC/C(=C\F)COc1ccc(S(=O)(=O)CN2CCOCC2=O)cc1 [Compound 130, (E)-4-(((4-((2-(aminomethyl)-3-fluoroallyl)oxy)phenyl)sulfonyl)methyl)morpholin-3-one] |  | 7.00 to 7.70 | < 4.52 | < 4.52 | 
NC/C(=C\F)COc1ccc(S(=O)(=O)CN2CCOCC2=O)c(F)c1 [Compound 131, (E)-4-(((4-((2-(aminomethyl)-3-fluoroallyl)oxy)-2-fluorophenyl)sulfonyl)methyl) morpholin-3-one] |  | 7.00 to 7.70 | < 4.52 | < 4.52 | 
CC1(C)COCC(=O)N1CS(=O)(=O)c1ccc(OC/C(=C/F)CN)cc1 [Compound 132, (E)-4-(((4-((2-(aminomethyl)-3-fluoroallyl)oxy)phenyl)sulfonyl)methyl)-5,5-dimethylmorpholin-3-one] |  | 7.00 to 7.70 | < 4.52 | > 5.00 | 
N#CC1(CS(=O)(=O)c2ccc(OC/C(=C/F)CN)cc2F)CCOCC1 [compound 13, (E)-4-(((4-((2-(aminomethyl)-3-fluoroallyl)oxy)-2-fluorophenyl)sulfonyl)methyl) tetrahydro-2H-pyran-4-carbonitrile] |  | 7.00 to 7.70 | 4.52 to 5.00 | 4.52 to 5.00 | 
CC(C)C(=O)N1CCC(CS(=O)(=O)c2ccc(OC/C(=C/F)CN)cc2)CC1 [compound 37, (E)-1-(4-(((4-((2-(aminomethyl)-3-fluoroallyl)oxy)phenyl)sulfonyl)methyl)piperidin-1-yl)-2-methylpropan-1-one] |  | > 7.70 | < 4.52 | < 4.52 | 

The next lines start with the values.

Kpuu (mouse, t = 5 min) [1] | pIC50 (recombinant hSSAO) | pIC50 (recombinant hMAO-A) | pIC50 (recombinant hMAO-B) | Kp uu at 5 min ([1]; mouse, read-out: Kpuu (mouse, t = 5 min)) | Compound
0.23 |  |  |  |  | CC(C)(C)NC(=O)c1ccc(OC/C(=C/F)CN)cc1.Cl [BI 1467335 (PXS-4728A), reference compound]
 | 7.00 to 7.70 | < 4.52 | < 4.52 |  | NC/C(=C\F)COc1ccc(S(=O)(=O)CC2(CN3CCOCC3)CC2)cc1 [Compound 116, (E)-3-fluoro-2-((4-(((1-(morpholinomethyl)cyclopropyl)methyl)sulfonyl)phenoxy)methyl) prop-2-en-1-amine]
 | 7.00 to 7.70 | < 4.52 | > 5.00 |  | CC(C)C(=O)N(C)CS(=O)(=O)c1ccc(OC/C(=C/F)CN)cc1 [Compound 122, (E)-N-(((4-((2-(aminomethyl)-3-fluoroallyl)oxy)phenyl)sulfonyl)methyl)-N-methylisobutyramide]
 | 6.30 to 7.00 | < 4.52 | > 5.00 |  | NC/C(=C\F)COc1ccc(S(=O)(=O)CN2CCC3(CCCC3)C2=O)cc1 [Compound 127, (E)-2-(((4-((2-(aminomethyl)-3-fluoroallyl)oxy)phenyl)sulfonyl)methyl)-2-azaspiro[4.4]nonan-1-one]
 | > 7.70 | < 4.52 | < 4.52 |  | NC/C(=C/F)COc1ccc(S(=O)(=O)CC23CCC(C(=O)NC4CCC4)(CC2)CC3)cc1 [Compound 140, (Z)-4-(((4-((2-(aminomethyl)-3-fluoroallyl)oxy)phenyl)sulfonyl)methyl)-N-cyclobicyclo[2.2.2]octane-1-carboxamide]
 | 7.00 to 7.70 | < 4.52 | < 4.52 |  | CC(C)(C)NC(=O)C12CCC(CS(=O)(=O)c3ccc(OC/C(=C\F)CN)cc3)(CC1)CC2 [Compound 141, (Z)-4-(((4-((2-(aminomethyl)-3-fluoroallyl)oxy)phenyl)sulfonyl)methyl)-N-(tert-butyl)bicyclo[2.2.2]octane-1-carboxamide]
 | > 7.70 | < 4.52 | < 4.52 |  | CC(C)(C)C(=O)NC12CCC(CS(=O)(=O)c3ccc(OC/C(=C\F)CN)cc3)(CC1)CC2 [Compound 142, (Z)-N-(4-(((4-((2-(aminomethyl)-3-fluoroallyl)oxy)phenyl)sulfonyl)methyl)bicyclo[2.2.2]octan-1-yl)pivalamide]
 | 7.00 to 7.70 | < 4.52 | > 5.00 |  | CC(C)NC(=O)C1CCC(CS(=O)(=O)c2ccc(OC/C(=C/F)CN)cc2)CC1 (stereo not shown) [Compound 144, (E)-4-(((4-((2-(aminomethyl)-3-fluoroallyl)oxy)phenyl)sulfonyl)methyl)-N-isopropylcyclohexane-1-carboxamide]
 | 7.00 to 7.70 |  | 4.52 to 5.00 | 0.034 | CN(C)C(=O)C12CCC(CS(=O)(=O)c3ccc(OC/C(=C/F)CN)cc3)(CC1)CC2 [compound 62, (E)-4-(((4-((2-(aminomethyl)-3-fluoroallyl)oxy)phenyl)sulfonyl)methyl)-N,N-dimethylbicyclo[2.2.2]octane-1-carboxamide]
